In the test the target is wild type c-kit (Homo sapiens (Human), UniProt P10721). Briefly: PathScan phospho c-kit (Tyr719) sandwich ELISA in SCF-stimulated M-07e cells (pKIT assay). Type of test: cell-based. The following applies: ELISA assay (values not marked *). The source says:
The ability of compounds of the disclosure (described herein as test compounds) to inhibit autophosphorylation of wild type c-kit was measures using either a PathScan phospho c-kit (Tyr719) sandwich ELISA (CST #7298) or a Phospho c-Kit (Tyr721) Assay Whole Cell Lysate Kit (MSD: 515DPD/catalog number K15119D-2).
For the PathScan phospho c-kit (Tyr719) sandwich ELISA: M-07e cells were resuspended at 2×10^6 cells/mL in phenol red free, serum-free, GM-CSF-free Iscove's Modified Dulbecco's Medium (IMDM) media with 1% Penicillin-Streptomycin. The cells were then dispensed into the wells of a U-bottom, 96-well plate at 50 uL per well using a multichannel pipet. The plate was allowed to incubate at 37° C. in a humidified tissue culture incubator for 4 hours.
After 4 hours of incubation, each well was dosed with 6.25 uL of test compound at a final DMSO concentration of 0.25% for 60 min at 37° C. to generate an 8-point dose concentration series of test compounds in duplicate. Cells were then incubated for 1 hour at 37° C. in a humidified tissue culture incubator. Next, human SCF at 500 ng/mL was added to the appropriate wells at 6.25 uL/well and the plate was shaken at 450 rpm at room temperature for 10 minutes. AlphaLISA 5× Lysis Buffer supplemented with 1× protease and phosphatase inhibitor was then added at 16 uL/well. The plate was sealed with an adherent cover and shaken at 4° C. at 600 rpm for 30 minutes. After this period of lysis, the plate was stored at −80° C.
When the 96-well plate containing M07e lysates was ready to be processed, the plate was brought to room temperature and 40 μl from each well was transferred to the wells of a PathScan Phospho-c-Kit (Tyr719) Sandwich ELISA plate (CST, Catalog #7298). The ELISA plate was sealed with an adherent cover and incubated for 2 hours at 37° C. Next, the wells were washed 4 times with the provided 1× Wash Buffer, and 100 uL/well of reconstituted Detection Antibody was added to each well, the plate sealed with an adherent cover, and incubated at 37° C. for 1 hour. The wash procedure was repeated and 100 uL/well of reconstituted HRP-Linked secondary antibody was added. The plate was sealed with an adherent cover and incubated at 37° C. for 1 hour. The wash procedure was repeated and 100 uL/well of TMB Substrate was added. The plate was incubated for 10 minutes at room temperature or until the positive reaction elicited a blue color in the appropriate wells. 100 uL/well of STOP solution was added and shaken gently for a few seconds a microplate reader or conventional spectrophotometer e.g., a Perkin Elmer Envision multimode plate reader, part #2105-0010.
An IC50 was calculated using a 4-parameter logistic nonlinear regression.
(ELISA stands for enzyme-linked immunosorbent assay.)

Sequence of wild type c-kit (P10721 26-976): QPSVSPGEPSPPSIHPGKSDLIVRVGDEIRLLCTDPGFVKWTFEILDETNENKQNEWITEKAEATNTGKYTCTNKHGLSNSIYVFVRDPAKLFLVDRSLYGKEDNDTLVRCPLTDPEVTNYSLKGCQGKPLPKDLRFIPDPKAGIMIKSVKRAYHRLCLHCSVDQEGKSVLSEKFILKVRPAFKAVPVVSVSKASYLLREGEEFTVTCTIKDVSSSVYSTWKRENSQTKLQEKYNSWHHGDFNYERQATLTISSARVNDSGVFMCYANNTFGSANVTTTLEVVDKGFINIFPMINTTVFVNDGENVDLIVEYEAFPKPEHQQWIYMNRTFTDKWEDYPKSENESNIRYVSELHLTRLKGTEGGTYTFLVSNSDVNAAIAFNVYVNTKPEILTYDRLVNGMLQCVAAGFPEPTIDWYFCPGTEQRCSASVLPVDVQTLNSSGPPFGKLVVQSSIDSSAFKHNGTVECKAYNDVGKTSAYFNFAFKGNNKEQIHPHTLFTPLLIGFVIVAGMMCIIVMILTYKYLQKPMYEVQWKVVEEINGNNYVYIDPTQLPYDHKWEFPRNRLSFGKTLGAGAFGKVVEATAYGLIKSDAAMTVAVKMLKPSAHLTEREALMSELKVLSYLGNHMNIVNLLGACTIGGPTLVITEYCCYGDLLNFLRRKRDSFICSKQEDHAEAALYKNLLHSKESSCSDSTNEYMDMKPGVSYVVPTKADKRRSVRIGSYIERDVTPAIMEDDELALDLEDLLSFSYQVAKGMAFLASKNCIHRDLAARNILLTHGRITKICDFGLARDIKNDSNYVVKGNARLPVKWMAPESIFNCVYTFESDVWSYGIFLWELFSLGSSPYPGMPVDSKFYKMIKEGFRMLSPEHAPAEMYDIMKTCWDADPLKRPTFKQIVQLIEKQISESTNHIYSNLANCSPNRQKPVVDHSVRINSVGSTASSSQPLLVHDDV

Broadly, the IC50 is the concentration needed to halve the response being measured. A higher IC50 goes with weaker potency in that assay. Compound `COCCNc1ccn2ncc(C(=O)Nc3cc(-c4nnn(C5CN(C(=O)OC)C5)n4)ccc3C)c2c1C` [Example 45, methyl 3-(5-(3-(5-((2-methoxyethyl)amino)-4-methylpyrazolo[1,5-a]pyridine-3-carboxamido)-4-methylphenyl)-2H-tetrazol-2-yl)azetidine-1-carboxylate] returned a 50% inhibitory concentration (IC50) of 70.2 nM.
For `Cc1cc(C)c(-c2nnn(CCC(C)(O)C(F)(F)F)n2)cc1NC(=O)c1cnn2ccccc12` (stereo not shown) [Example 36, N-(2,4-dimethyl-5-(2-(4,4,4-trifluoro-3-hydroxy-3-methylbutyl)-2H-tetrazol-5-yl)phenyl)pyrazolo[1,5-a]pyridine-3-carboxamide], the half-inhibitory concentration (IC50) amounted to 8.5 nM.
As for `Cc1c(-c2ccn3ncc(C(=O)Nc4cc(-c5nnn(C6CC6)n5)c(F)cc4Cl)c3c2)cnn1C[C@H](C)O` [Example 264, (S)-N-(2-chloro-5-(2-cyclopropyl-2H-tetrazol-5-yl)-4-fluorophenyl)-5-(1-(2-hydroxypropyl)-5-methyl-1H-pyrazol-4-yl)pyrazolo[1,5-a]pyridine-3-carboxamide], the IC50 turned out to be 0.5 nM.
On to `O=C(Nc1cc(-c2nnn(C3CN(CC(F)(F)F)C3)n2)ccc1Cl)c1cnn2ccccc12` [Example 195, N-(2-chloro-5-(2-(1-(2,2,2-trifluoroethyl)azetidin-3-yl)-2H-tetrazol-5-yl)phenyl)pyrazolo[1,5-a]pyridine-3-carboxamide], for which it took 8.7 nM to reach half-maximal inhibition (IC50).
As for `COCCOCCS(=O)(=O)N1CC(n2nnc(-c3ccc(C)c(NC(=O)c4cnn5ccccc45)c3)n2)C1` [Example 185, N-(5-(2-(1-((2-(2-methoxyethoxy)ethyl)sulfonyl)azetidin-3-yl)-2H-tetrazol-5-yl)-2-methylphenyl)pyrazolo[1,5-a]pyridine-3-carboxamide], the figure is 161 nM; as for `COCCNc1ccn2ncc(C(=O)Nc3cc(-n4nnc(C5CN(C(=O)OC)C5)n4)ccc3C)c2c1` [Example 125, methyl 3-(2-(3-(5-((2-methoxyethyl)amino)pyrazolo[1,5-a]pyridine-3-carboxamido)-4-methylphenyl)-2H-tetrazol-5-yl)azetidine-1-carboxylate], 7.2 nM.
As for `Cc1nn([C@H](C)[C@@H](C)O)cc1-c1ccn2ncc(C(=O)Nc3cc(-c4nnn(C5CC5)n4)c(F)cc3Cl)c2c1` (single isomer, unassigned) [Example 287, N-(2-chloro-5-(2-cyclopropyl-2H-tetrazol-5-yl)-4-fluorophenyl)-5-(1-((2R,3R)-3-hydroxybutan-2-yl)-3-methyl-1H-pyrazol-4-yl)pyrazolo[1,5-a]pyridine-3-carboxamide or N-(2-chloro-5-(2-cyclopropyl-2H-tetrazol-5-yl)-4-fluorophenyl)-5-(1-((2S,3S)-3-hydroxybutan-2-yl)-3-methyl-1H-pyrazol-4-yl)pyrazolo[1,5-a]pyridine-3-carboxamide], the figure is 0.9 nM; as for `COC(=O)N1CC(n2nnc(-c3ccc(C)c(NC(=O)c4cnn5ccc(NC[C@H](C)OC)cc45)c3)n2)C1` [Example 134, methyl (S)-3-(5-(3-(5-((2-methoxypropyl)amino)pyrazolo[1,5-a]pyridine-3-carboxamido)-4-methylphenyl)-2H-tetrazol-2-yl)azetidine-1-carboxylate], 32.4 nM; as for `Cc1ccc(-c2nnn(C3CN(S(=O)(=O)CC4CCC4)C3)n2)cc1NC(=O)c1cnn2ccccc12` [Example 180, N-(5-(2-(1-((cyclobutylmethyl)sulfonyl)azetidin-3-yl)-2H-tetrazol-5-yl)-2-methylphenyl)pyrazolo[1,5-a]pyridine-3-carboxamide], 13.4 nM.
Consider `COC[C@@](C)(O)Cn1cc(-c2ccn3ncc(C(=O)Nc4cc(-c5nnn(C6CC6)n5)c(F)cc4C)c3c2)c(C)n1` (single isomer, unassigned) [Example 249, (S)-N-(5-(2-cyclopropyl-2H-tetrazol-5-yl)-4-fluoro-2-methylphenyl)-5-(1-(2-hydroxy-3-methoxy-2-methylpropyl)-3-methyl-1H-pyrazol-4-yl)pyrazolo[1,5-a]pyridine-3-carboxamide or (R)-N-(5-(2-cyclopropyl-2H-tetrazol-5-yl)-4-fluoro-2-methylphenyl)-5-(1-(2-hydroxy-3-methoxy-2-methylpropyl)-3-methyl-1H-pyrazol-4-yl)pyrazolo[1,5-a]pyridine-3-carboxamide], for which the IC50 came out at 0.7 nM. Against the preceding compound, the IC50 is about 19-fold lower.
As for `Cc1ccc(-c2nnn(CC3CC4(CCC4)CO3)n2)cc1NC(=O)c1cnn2ccccc12` (stereo not shown) [Example 9, N-(5-(2-((6-oxaspiro[3.4]octan-7-yl)methyl)-2H-tetrazol-5-yl)-2-methylphenyl)pyrazolo[1,5-a]pyridine-3-carboxamide], the figure is 4.8 nM; as for `COCCNc1ccn2ncc(C(=O)Nc3cc(-c4nnn(C5CC6(CCC6)C5)n4)ccc3C)c2c1` [Example 150, 5-((2-methoxyethyl)amino)-N-(2-methyl-5-(2-(spiro[3.3]heptan-2-yl)-2H-tetrazol-5-yl)phenyl)pyrazolo[1,5-a]pyridine-3-carboxamide], 3.4 nM.
As for `CCn1nnc(-c2ccc(Cl)c(NC(=O)c3cnn4ccc(-c5c(C)nn(C[C@H](C)O)c5C)cc34)c2)n1` [Example 253, (S)-N-(2-chloro-5-(2-ethyl-2H-tetrazol-5-yl)phenyl)-5-(1-(2-hydroxypropyl)-3,5-dimethyl-1H-pyrazol-4-yl)pyrazolo[1,5-a]pyridine-3-carboxamide], the figure is 0.4 nM.
As for `CCNc1ccn2ncc(C(=O)Nc3cc(-c4nnn(C5CN(C(=O)OC)C5)n4)ccc3C)c2c1` [Example 127, methyl 3-(5-(3-(5-(ethylamino)pyrazolo[1,5-a]pyridine-3-carboxamido)-4-methylphenyl)-2H-tetrazol-2-yl)azetidine-1-carboxylate], the concentration for half-maximal inhibition (IC50) is 30.2 nM.
As for `Cc1cc(F)c(-c2nnn(C3CC(F)(F)C3)n2)cc1NC(=O)c1cnn2ccc(N3CCOCC3)cc12` [Example 59, N-(5-(2-(3,3-difluorocyclobutyl)-2H-tetrazol-5-yl)-4-fluoro-2-methylphenyl)-5-morpholinopyrazolo[1,5-a]pyridine-3-carboxamide], the figure is 4.5 nM.
As for `Cc1ccc(-c2nnn(CCCC(F)(F)F)n2)cc1NC(=O)c1cnn2ccccc12` [Example 1, N-(2-methyl-5-(2-(4,4,4-trifluorobutyl)-2H-tetrazol-5-yl)phenyl)pyrazolo[1,5-a]pyridine-3-carboxamide], the figure is 3.8 nM.
`Cc1ccc(-c2nnn([C@H]3C[C@H](CO)C3)n2)cc1NC(=O)c1cnn2ccccc12` [Example 200, N-(5-(2-((1r,3r)-3-(hydroxymethyl)cyclobutyl)-2H-tetrazol-5-yl)-2-methylphenyl)pyrazolo[1,5-a]pyridine-3-carboxamide]: the concentration for half-maximal inhibition (IC50) worked out at 16.9 nM.
As for `COC(=O)N1CC(n2nnc(-c3ccc(C)c(NC(=O)c4cnn5ccccc45)c3)n2)C1` [Example 191, methyl 3-(5-(4-methyl-3-(pyrazolo[1,5-a]pyridine-3-carboxamido)phenyl)-2H-tetrazol-2-yl)azetidine-1-carboxylate], the figure is 41.3 nM; as for `COC(=O)N1CC(n2nnc(-c3ccc(C)c(NC(=O)c4cnn5ccc(N6CCC(F)(F)CC6)cc45)c3)n2)C1` [Example 147, methyl 3-(5-(3-(5-(4,4-difluoropiperidin-1-yl)pyrazolo[1,5-a]pyridine-3-carboxamido)-4-methylphenyl)-2H-tetrazol-2-yl)azetidine-1-carboxylate], 31.6 nM.
As for `Cc1ccc(-c2nnn(C)n2)cc1NC(=O)c1cnn2ccc(-c3cnn(CC(C)(C)O)c3)cc12` [Example 48, 5-(1-(2-hydroxy-2-methylpropyl)-1H-pyrazol-4-yl)-N-(2-methyl-5-(2-methyl-2H-tetrazol-5-yl)phenyl)pyrazolo[1,5-a]pyridine-3-carboxamide], the figure is 3.6 nM; as for `Cc1ccc(-c2nnn(C)n2)cc1NC(=O)c1cnn2ccccc12` [Example 2, N-(2-methyl-5-(2-methyl-2H-tetrazol-5-yl)phenyl)pyrazolo[1,5-a]pyridine-3-carboxamide], 4.8 nM; as for `[2H]C([2H])([2H])OCCNc1ccn2ncc(C(=O)Nc3cc(-c4nnn(C5CN(C(=O)OC)C5)n4)ccc3C)c2c1` [Example 100, methyl 3-(5-(3-(5-((2-(methoxy-d3)ethyl)amino)pyrazolo[1,5-a]pyridine-3-carboxamido)-4-methylphenyl)-2H-tetrazol-2-yl)azetidine-1-carboxylate], 33.8 nM.

For the origin of these results see US20240262826A1, “WILD TYPE KIT INHIBITORS” (Blueprint Medicines Corporation, priority 2022, published 2024).
